Laboratory results published in patent publication US10835533B2, “1 -((3S,4R)-4-(3-fluorophenyl)-1-(2-methoxyethyl)pyrrolidin-3-yl)-3-(4-methyl-3-(2-methylpyrimidin-5-yl)-1-phenyl-1H-pyrazol-5-yl)urea as a TrkA kinase inhibitor” (Array BioPharma Inc., priority 2014, dated 2020).

Experiments:
Assay in all cases: KinaseProfiler kinase profiling
Type in all cases: biochemical
Details in all cases: 10 μM, ATP near Km
AKT2 = molecular target: T1, AKT2 (Homo sapiens, UniProt P31751)
T1 construct: purchased Millipore, Inc. (KinaseProfiler service)
Description: (§1) Compound 1 was tested for off-target kinase activity at a concentration of 10 μM by Millipore, Inc. in their KinaseProfiler™ service against all the kinases available in their full kinase panel. Compound 1 was run in duplicate at a concentration of ATP near the Km for each individual kinase according to Millipore's specifications. Data are reported as percent of control (POC) and are the average of the two replicates.

BTK = molecular target: T2, BTK (Homo sapiens, UniProt Q06187)
T2 construct: purchased Millipore, Inc. (KinaseProfiler service)
Description: as §1

Bmx = molecular target: T3, Bmx (Homo sapiens, UniProt P51813)
T3 construct: purchased Millipore, Inc. (KinaseProfiler service)
Description: as §1

CAMK1 = molecular target: T4, CAMK1 (Homo sapiens, UniProt Q14012)
T4 construct: purchased Millipore, Inc. (KinaseProfiler service)
Description: as §1

CAMK2b = molecular target: T5, CAMK2b (Homo sapiens, UniProt Q13554)
T5 construct: purchased Millipore, Inc. (KinaseProfiler service)
Description: as §1

CDK5/p25 = molecular target: T6, CDK5/p25 (Homo sapiens, UniProt Q00535)
T6 construct: purchased Millipore, Inc. (KinaseProfiler service)
Description: as §1

CDK7/cyclinH/MAT1 = molecular target: T7, CDK7/cyclinH/MAT1 (Homo sapiens, UniProt P50613)
T7 construct: purchased Millipore, Inc. (KinaseProfiler service)
Description: as §1

CK1gamma3 = molecular target: T8, CK1gamma3 (Homo sapiens, UniProt Q9Y6M4)
T8 construct: purchased Millipore, Inc. (KinaseProfiler service)
Description: as §1

CLK2 = molecular target: T9, CLK2 (Homo sapiens, UniProt P49760)
T9 construct: purchased Millipore, Inc. (KinaseProfiler service)
Description: as §1

CSK = molecular target: T10, CSK (Homo sapiens, UniProt P41240)
T10 construct: purchased Millipore, Inc. (KinaseProfiler service)
Description: as §1

ERK1 = molecular target: T11, ERK1 (Homo sapiens, UniProt P27361)
T11 construct: purchased Millipore, Inc. (KinaseProfiler service)
Description: as §1

EphA1 = molecular target: T12, EphA1 (Homo sapiens, UniProt P21709)
T12 construct: purchased Millipore, Inc. (KinaseProfiler service)
Description: as §1

EphA7 = molecular target: T13, EphA7 (Homo sapiens, UniProt Q15375)
T13 construct: purchased Millipore, Inc. (KinaseProfiler service)
Description: as §1

EphB3 = molecular target: T14, EphB3 (Homo sapiens, UniProt P54753)
T14 construct: purchased Millipore, Inc. (KinaseProfiler service)
Description: as §1

Flt3 = molecular target: T15, Flt3 (Homo sapiens, UniProt P36888)
T15 construct: purchased Millipore, Inc. (KinaseProfiler service)
Description: as §1

GRK5 = molecular target: T16, GRK5 (Homo sapiens, UniProt P34947)
T16 construct: purchased Millipore, Inc. (KinaseProfiler service)
Description: as §1

GSK3beta = molecular target: T17, GSK3beta (Homo sapiens, UniProt P49841)
T17 construct: purchased Millipore, Inc. (KinaseProfiler service)
Description: as §1

HIPK2 = molecular target: T18, HIPK2 (Homo sapiens, UniProt Q9H2X6)
T18 construct: purchased Millipore, Inc. (KinaseProfiler service)
Description: as §1

IGF-1R Activated = molecular target: T19, IGF-1R Activated (Homo sapiens, UniProt P08069)
T19 construct: purchased Millipore, Inc. (KinaseProfiler service)
Description: as §1

JAK2 = molecular target: T20, JAK2 (Homo sapiens, UniProt O60674)
T20 construct: purchased Millipore, Inc. (KinaseProfiler service)
Description: as §1

LIMK1 = molecular target: T21, LIMK1 (Homo sapiens, UniProt P53667)
T21 construct: purchased Millipore, Inc. (KinaseProfiler service)
Description: as §1

MAP3K5 = molecular target: T22, MAP3K5 (Homo sapiens, UniProt Q99683)
T22 construct: purchased Millipore, Inc. (KinaseProfiler service)
Description: as §1

MAPKAP-K3 = molecular target: T23, MAPKAP-K3 (Homo sapiens, UniProt Q16644)
T23 construct: purchased Millipore, Inc. (KinaseProfiler service)
Description: as §1

MKK7 = molecular target: T24, MKK7 (Homo sapiens, UniProt O14733)
T24 construct: purchased Millipore, Inc. (KinaseProfiler service)
Description: as §1

MLK1 = molecular target: T25, MLK1 (Homo sapiens, UniProt P80192)
T25 construct: purchased Millipore, Inc. (KinaseProfiler service)
Description: as §1

MYLK = molecular target: T26, MYLK (Homo sapiens, UniProt Q15746)
T26 construct: purchased Millipore, Inc. (KinaseProfiler service)
Description: as §1

NEK11 = molecular target: T27, NEK11 (Homo sapiens, UniProt Q8NG66)
T27 construct: purchased Millipore, Inc. (KinaseProfiler service)
Description: as §1

NLK = molecular target: T28, NLK (Homo sapiens, UniProt Q9UBE8)
T28 construct: purchased Millipore, Inc. (KinaseProfiler service)
Description: as §1

PAK6 = molecular target: T29, PAK6 (Homo sapiens, UniProt Q9NQU5)
T29 construct: purchased Millipore, Inc. (KinaseProfiler service)
Description: as §1

PKCbetaI = molecular target: T30, PKCbetaI (Homo sapiens, UniProt P05771)
T30 construct: purchased Millipore, Inc. (KinaseProfiler service)
Description: as §1

Pim-1 = molecular target: T31, Pim-1 (Homo sapiens, UniProt P11309)
T31 construct: purchased Millipore, Inc. (KinaseProfiler service)
Description: as §1

Pim-2 = molecular target: T32, Pim-2 (Homo sapiens, UniProt Q9P1W9)
T32 construct: purchased Millipore, Inc. (KinaseProfiler service)
Description: as §1

Plk1 = molecular target: T33, Plk1 (Homo sapiens, UniProt P53350)
T33 construct: purchased Millipore, Inc. (KinaseProfiler service)
Description: as §1

PrKX = molecular target: T34, PrKX (Homo sapiens, UniProt P51817)
T34 construct: purchased Millipore, Inc. (KinaseProfiler service)
Description: as §1

Ros = molecular target: T35, Ros (Homo sapiens, UniProt P08922)
T35 construct: purchased Millipore, Inc. (KinaseProfiler service)
Description: as §1

Rsk2 = molecular target: T36, Rsk2 (Homo sapiens, UniProt P51812)
T36 construct: purchased Millipore, Inc. (KinaseProfiler service)
Description: as §1

SGK1 = molecular target: T37, SGK1 (Homo sapiens, UniProt O00141)
T37 construct: purchased Millipore, Inc. (KinaseProfiler service)
Description: as §1

SIK = molecular target: T38, SIK (Homo sapiens, UniProt P57059)
T38 construct: purchased Millipore, Inc. (KinaseProfiler service)
Description: as §1

TAO3 = molecular target: T39, TAO3 (Homo sapiens, UniProt Q9H2K8)
T39 construct: purchased Millipore, Inc. (KinaseProfiler service)
Description: as §1

TBK1 = molecular target: T40, TBK1 (Homo sapiens, UniProt Q9UHD2)
T40 construct: purchased Millipore, Inc. (KinaseProfiler service)
Description: as §1

TLK2 = molecular target: T41, TLK2 (Homo sapiens, UniProt Q86UE8)
T41 construct: purchased Millipore, Inc. (KinaseProfiler service)
Description: as §1

T14 sequence (P54753 34-998): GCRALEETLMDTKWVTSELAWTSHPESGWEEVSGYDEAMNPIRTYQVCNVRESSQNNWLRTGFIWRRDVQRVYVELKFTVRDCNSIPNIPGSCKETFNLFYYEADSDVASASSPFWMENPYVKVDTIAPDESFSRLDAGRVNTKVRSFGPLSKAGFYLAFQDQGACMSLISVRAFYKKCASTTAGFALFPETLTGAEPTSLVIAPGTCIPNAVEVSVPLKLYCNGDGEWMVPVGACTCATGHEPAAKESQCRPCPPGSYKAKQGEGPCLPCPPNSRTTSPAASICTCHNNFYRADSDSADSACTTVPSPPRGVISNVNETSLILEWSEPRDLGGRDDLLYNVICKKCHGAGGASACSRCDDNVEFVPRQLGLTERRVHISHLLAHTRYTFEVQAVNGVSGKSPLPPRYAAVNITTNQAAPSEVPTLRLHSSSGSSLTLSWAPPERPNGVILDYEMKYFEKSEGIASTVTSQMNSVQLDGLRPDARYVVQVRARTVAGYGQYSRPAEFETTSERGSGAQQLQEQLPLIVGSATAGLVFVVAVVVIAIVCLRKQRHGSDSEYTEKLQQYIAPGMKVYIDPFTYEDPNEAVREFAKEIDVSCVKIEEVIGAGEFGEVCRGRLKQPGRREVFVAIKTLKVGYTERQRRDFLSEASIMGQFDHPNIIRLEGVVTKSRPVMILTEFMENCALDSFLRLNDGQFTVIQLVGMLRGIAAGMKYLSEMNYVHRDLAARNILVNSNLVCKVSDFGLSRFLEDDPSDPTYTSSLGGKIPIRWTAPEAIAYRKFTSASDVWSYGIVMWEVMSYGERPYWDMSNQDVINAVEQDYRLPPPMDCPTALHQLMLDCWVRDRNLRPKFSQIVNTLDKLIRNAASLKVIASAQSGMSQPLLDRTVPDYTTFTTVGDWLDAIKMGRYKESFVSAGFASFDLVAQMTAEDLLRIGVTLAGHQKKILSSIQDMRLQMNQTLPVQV
T5 sequence (Q13554 whole entry): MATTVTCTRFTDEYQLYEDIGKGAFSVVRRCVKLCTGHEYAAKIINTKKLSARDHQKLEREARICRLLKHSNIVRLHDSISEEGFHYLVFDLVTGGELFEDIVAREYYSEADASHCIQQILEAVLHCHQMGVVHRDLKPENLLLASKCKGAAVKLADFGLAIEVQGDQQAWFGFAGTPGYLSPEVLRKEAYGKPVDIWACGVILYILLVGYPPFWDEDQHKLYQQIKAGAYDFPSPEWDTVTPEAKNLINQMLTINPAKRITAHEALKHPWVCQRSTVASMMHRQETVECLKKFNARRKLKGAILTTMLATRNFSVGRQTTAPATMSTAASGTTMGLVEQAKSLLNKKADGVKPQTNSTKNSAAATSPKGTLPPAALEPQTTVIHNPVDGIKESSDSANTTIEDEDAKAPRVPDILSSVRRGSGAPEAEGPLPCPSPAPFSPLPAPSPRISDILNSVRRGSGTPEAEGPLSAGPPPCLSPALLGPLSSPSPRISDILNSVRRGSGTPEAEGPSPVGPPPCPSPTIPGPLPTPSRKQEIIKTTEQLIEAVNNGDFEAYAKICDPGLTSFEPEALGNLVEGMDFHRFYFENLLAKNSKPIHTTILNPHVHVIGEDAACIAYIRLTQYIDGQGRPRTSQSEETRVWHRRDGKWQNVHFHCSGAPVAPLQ
T11 sequence (P27361 whole entry): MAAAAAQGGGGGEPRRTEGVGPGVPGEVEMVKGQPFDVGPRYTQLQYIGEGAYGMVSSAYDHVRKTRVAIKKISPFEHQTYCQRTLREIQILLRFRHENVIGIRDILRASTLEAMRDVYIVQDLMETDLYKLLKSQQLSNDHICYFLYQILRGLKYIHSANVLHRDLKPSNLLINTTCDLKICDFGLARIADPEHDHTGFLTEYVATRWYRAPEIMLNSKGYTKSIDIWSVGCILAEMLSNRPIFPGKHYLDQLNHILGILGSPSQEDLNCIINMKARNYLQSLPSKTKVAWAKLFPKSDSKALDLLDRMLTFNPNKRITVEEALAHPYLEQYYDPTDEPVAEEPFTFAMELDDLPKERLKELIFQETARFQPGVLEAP
T21 sequence (P53667 whole entry): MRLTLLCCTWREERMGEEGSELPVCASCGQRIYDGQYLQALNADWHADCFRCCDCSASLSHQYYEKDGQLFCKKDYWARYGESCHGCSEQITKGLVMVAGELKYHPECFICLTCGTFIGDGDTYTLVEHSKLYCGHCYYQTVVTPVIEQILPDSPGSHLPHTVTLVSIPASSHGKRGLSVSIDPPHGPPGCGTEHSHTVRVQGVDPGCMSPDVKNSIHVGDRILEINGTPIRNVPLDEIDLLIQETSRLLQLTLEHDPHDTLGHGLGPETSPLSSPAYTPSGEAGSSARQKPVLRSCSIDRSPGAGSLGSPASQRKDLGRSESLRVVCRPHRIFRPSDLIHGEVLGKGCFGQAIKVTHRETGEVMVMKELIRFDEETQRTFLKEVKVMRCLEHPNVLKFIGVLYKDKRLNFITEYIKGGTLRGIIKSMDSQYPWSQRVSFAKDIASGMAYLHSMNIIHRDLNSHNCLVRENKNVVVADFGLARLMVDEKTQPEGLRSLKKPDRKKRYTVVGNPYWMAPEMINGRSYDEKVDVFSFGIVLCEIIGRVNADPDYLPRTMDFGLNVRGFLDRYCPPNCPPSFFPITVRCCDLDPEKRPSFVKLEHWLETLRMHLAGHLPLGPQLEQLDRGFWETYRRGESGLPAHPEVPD
T13 sequence (Q15375 28-998): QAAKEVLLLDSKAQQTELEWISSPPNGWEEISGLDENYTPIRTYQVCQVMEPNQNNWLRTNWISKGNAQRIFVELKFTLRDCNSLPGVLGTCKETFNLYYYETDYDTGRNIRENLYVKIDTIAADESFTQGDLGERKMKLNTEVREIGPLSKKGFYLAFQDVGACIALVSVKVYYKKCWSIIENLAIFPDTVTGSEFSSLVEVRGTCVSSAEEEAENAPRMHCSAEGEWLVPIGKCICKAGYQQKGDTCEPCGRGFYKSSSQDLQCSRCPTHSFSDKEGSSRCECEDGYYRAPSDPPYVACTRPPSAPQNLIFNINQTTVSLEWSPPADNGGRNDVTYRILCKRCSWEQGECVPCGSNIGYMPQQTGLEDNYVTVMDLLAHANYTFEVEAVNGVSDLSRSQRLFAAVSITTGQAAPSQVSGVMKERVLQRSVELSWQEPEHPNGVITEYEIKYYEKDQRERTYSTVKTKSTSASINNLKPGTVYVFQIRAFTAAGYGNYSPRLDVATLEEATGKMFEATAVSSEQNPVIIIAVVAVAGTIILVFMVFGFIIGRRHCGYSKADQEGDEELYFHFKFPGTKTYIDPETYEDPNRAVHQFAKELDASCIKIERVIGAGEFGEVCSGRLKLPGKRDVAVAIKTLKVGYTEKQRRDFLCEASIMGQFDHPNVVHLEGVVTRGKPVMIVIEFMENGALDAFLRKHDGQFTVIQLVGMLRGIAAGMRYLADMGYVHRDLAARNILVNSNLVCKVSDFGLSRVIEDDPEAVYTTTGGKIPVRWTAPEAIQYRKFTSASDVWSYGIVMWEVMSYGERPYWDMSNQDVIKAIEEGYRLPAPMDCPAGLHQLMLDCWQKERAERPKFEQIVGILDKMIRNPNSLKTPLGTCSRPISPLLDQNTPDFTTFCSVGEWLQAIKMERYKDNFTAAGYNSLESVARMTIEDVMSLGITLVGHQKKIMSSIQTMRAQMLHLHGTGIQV
T19 sequence (P08069 959-1367 limits assumed): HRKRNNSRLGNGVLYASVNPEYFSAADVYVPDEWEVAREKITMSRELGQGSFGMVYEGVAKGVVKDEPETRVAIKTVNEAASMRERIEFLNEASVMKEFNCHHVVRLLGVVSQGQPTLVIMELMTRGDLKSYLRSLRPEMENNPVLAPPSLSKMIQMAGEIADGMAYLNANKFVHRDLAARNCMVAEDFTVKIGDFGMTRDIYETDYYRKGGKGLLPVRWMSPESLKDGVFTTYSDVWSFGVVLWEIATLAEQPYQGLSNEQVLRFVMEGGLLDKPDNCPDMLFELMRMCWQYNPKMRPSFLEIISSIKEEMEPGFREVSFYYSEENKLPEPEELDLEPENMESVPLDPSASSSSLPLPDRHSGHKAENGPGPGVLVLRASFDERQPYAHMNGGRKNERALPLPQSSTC
T36 sequence (P51812 whole entry): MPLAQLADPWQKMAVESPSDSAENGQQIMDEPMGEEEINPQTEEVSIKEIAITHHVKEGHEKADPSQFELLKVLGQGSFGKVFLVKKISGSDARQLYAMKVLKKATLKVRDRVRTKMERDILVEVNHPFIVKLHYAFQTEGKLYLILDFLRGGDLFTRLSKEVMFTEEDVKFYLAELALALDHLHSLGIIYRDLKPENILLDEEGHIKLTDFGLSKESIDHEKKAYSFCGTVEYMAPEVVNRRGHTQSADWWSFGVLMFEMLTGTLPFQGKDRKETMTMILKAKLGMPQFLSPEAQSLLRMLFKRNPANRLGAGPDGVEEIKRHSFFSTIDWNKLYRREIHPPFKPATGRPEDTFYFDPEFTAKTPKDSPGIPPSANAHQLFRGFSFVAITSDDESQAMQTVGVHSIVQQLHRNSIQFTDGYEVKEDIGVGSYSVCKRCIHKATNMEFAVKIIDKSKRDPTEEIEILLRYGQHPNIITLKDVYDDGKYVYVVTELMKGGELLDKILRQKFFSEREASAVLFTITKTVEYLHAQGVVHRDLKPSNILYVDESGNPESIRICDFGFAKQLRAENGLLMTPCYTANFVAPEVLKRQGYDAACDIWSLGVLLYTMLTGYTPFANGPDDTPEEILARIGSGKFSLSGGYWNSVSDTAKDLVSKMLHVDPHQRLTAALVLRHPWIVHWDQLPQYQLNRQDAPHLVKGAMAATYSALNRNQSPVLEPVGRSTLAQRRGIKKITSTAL

Avg POC (AKT2): 104.5 POC
Avg POC (BTK): 114 POC
Avg POC (Bmx): 91.5 POC
Avg POC (CAMK1): 104.5 POC
Avg POC (CAMK2b): 147.5 POC
Avg POC (CDK5/p25): 115 POC
Avg POC (CDK7/cyclinH/MAT1): 99 POC
Avg POC (CK1gamma3): 104.5 POC
Avg POC (CLK2): 102 POC
Avg POC (CSK): 100 POC
Avg POC (ERK1): 94.5 POC
Avg POC (EphA1): 94.5 POC
Avg POC (EphA7): 109 POC
Avg POC (EphB3): 89.5 POC
Avg POC (Flt3): 102 POC
Avg POC (GRK5): 100 POC
Avg POC (GSK3beta): 112 POC
Avg POC (HIPK2): 101.5 POC
Avg POC (IGF-1R Activated): 105 POC
Avg POC (JAK2): 126 POC
Avg POC (LIMK1): 98 POC
Avg POC (MAP3K5): 101 POC
Avg POC (MAPKAP-K3): 99 POC
Avg POC (MKK7): 125 POC
Avg POC (MLK1): 109.5 POC
Avg POC (MYLK): 106.5 POC
Avg POC (NEK11): 94 POC
Avg POC (NLK): 94.5 POC
Avg POC (PAK6): 114.5 POC
Avg POC (PKCbetaI): 102.5 POC
Avg POC (Pim-1): 103.5 POC
Avg POC (Pim-2): 117.5 POC
Avg POC (Plk1): 99.5 POC
Avg POC (PrKX): 115.5 POC
Avg POC (Ros): 112.5 POC
Avg POC (Rsk2): 93 POC
Avg POC (SGK1): 105 POC
Avg POC (SIK): 108 POC
Avg POC (TAO3): 103 POC
Avg POC (TBK1): 114.5 POC
Avg POC (TLK2): 101.5 POC
Structure (SMILES): COCCN1C[C@@H](NC(=O)Nc2c(C)c(-c3cnc(C)nc3)nn2-c2ccccc2)[C@H](c2cccc(F)c2)C1 [Compound 1, 1-((3S,4R)-4-(3-fluorophenyl)-1-(2-methoxyethyl)pyrrolidin-3-yl)-3-(4-methyl-3-(2-methylpyrimidin-5-yl)-1-phenyl-1H-pyrazol-5-yl)urea]
